From PMC7380166, “How to Study the Metabolism of New Psychoactive Substances for the Purpose of Toxicological Screenings—A Follow-Up Study Comparing Pooled Human Liver S9, HepaRG Cells, and Zebrafish Larvae” (Frontiers in Chemistry, 2020)

How the values were obtained:
[1] = test system: zebrafish larvae; test: In vivo maximum-tolerated concentration (MTC) study in zebrafish larvae; set-up: species or system zebrafish (Danio rerio); details: for Survival rate: 24-h treatment, fifteen larvae
Outline: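 AB wild-type larvae, one per well in Danieau's medium (pH 7.1–7.3) at 28°C, exposed from 4 dpf for 24 h to 0, 0.01, 0.1, 1, 10, 50 or 100 μM with 1% DMSO.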

[2] = target: T1, hCES1b (Homo sapiens, UniProt P23141); test: Esterases activity screening, hCES1b; format: in vitro ADME; set-up: key: +, detected; –: −, not detected; details: 100 μM 4F-MDMB-BINACA, 0.2 mg protein/ml, duplicate
T1 construct: purchased Corning
T1 sequence (P23141 18-567): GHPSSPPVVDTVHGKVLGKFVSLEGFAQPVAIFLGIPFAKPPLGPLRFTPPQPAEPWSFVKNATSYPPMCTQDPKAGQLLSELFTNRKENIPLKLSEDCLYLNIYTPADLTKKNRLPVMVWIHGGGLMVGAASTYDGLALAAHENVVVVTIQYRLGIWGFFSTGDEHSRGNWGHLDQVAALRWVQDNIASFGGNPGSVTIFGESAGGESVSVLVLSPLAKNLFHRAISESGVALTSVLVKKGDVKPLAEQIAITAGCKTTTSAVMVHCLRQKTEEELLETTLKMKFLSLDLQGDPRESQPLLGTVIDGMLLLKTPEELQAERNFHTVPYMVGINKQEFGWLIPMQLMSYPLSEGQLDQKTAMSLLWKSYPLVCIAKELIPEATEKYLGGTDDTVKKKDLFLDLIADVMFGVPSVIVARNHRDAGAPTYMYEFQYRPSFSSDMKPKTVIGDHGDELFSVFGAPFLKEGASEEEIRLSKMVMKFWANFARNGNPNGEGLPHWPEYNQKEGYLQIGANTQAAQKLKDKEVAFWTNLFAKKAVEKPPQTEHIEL
Experimental: Experiments were performed in accordance with a previous study (Meyer et al., [2015]) with minor modifications. The final volume per reaction tube was 100 μl with a final 4F-MDMB-BINACA concentration of 100 μM and enzyme concentration of 0.2 mg protein/ml for hCES1b, hCES1c, and hCES2. Incubations with pHLM and pHLS9 (0.2 mg protein/ml, each) were performed in a similar manner. Additionally, incubations with human plasma (50 μl pooled human plasma, 40 μl phosphate buffer, and 10 μl substrate) were performed. The reactions were started by adding the enzyme-containing preparation and terminated with an equal volume of ice-cold acetonitrile containing diazepam-d5 (100 μM) as an internal standard. Only plasma incubations were terminated by addition of a three-fold volume of ice-cold acetonitrile. The reaction mixtures were centrifuged at 18,407 × g for 15 min, and then supernatants were transferred to autosampler vials, and 5 μl was injected onto the LC-HRMS/MS system. Negative control incubations without enzyme were prepared to identify non-metabolically formed compounds. All incubations were done in duplicate.

Compound	Survival rate ([1]; 0.01 μM, larvae 4 dpf)	Survival rate ([1]; 0.1 μM, larvae 4 dpf)	Survival rate ([1]; 1 μM, larvae 4 dpf)	Survival rate ([1]; 10 μM, larvae 4 dpf)	Survival rate ([1]; 50 μM, larvae 4 dpf)	Survival rate ([1]; 100 μM, larvae 4 dpf)	Concentration considered non-toxic for zebrafish larvae (4 dpf) ([1]; 24 h exposure via medium)	Malformations ([1]; up to 100 μM, larvae 4 dpf, 24 h)	Detection of metabolite in incubation with hCES1b [2]
COC(=O)C(NC(=O)c1nn(CCCCF)c2ccccc12)C(C)(C)C (stereo not drawn) [4F-MDMB-BINACA, methyl 2-[1-(4-fluorobutyl)-1H-indazole-3-carbonyl]amino-3,3-dimethylbutanoate]	100%	100%	100%	100%	73%	53%	25 µM	No malformations	–
CC(C)(C)C(NC(=O)c1nn(CCCCF)c2ccccc12)C(=O)O (stereo not drawn) [MB8]	–	–	–	–	–	–	–	–	+
